BindingDB's records for doi:10.1016/0006-2952(92)90616-q (National Institutes of Diabetes and Digestive and Kidney …, 1992)

Columns and labels:
[1] = biological target: Adenosine receptor A2a (Rattus norvegicus, UniProt P30543)
[2] = biological target: T1, Adenosine receptor A1 (Rattus norvegicus, UniProt P25099)
T1 sequence (P25099 whole entry): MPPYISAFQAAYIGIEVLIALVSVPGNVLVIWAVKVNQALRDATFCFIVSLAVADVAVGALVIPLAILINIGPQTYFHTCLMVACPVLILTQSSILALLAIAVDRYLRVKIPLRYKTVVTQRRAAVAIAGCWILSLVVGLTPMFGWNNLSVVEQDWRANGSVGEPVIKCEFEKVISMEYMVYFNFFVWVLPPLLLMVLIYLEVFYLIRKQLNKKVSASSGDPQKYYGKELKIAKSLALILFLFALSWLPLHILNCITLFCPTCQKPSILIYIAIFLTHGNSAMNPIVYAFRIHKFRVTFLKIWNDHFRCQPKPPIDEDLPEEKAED

Adenosine receptor A2a, sequence (P30543 whole entry): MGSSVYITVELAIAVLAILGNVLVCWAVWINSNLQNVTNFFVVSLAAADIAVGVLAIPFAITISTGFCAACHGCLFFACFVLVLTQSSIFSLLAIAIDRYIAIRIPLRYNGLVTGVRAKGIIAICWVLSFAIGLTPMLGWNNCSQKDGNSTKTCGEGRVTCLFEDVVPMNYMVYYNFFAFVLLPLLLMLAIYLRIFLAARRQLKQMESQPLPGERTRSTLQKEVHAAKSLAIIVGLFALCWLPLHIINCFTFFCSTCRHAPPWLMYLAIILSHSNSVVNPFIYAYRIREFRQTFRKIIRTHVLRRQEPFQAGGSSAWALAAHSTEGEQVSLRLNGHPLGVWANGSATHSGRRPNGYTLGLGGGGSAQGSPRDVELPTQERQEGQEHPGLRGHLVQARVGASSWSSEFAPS

CSC[C@H]1O[C@@H](n2cnc3c(NC4CCCC4)ncnc32)[C@H](O)[C@@H]1O [5'-Methylthio Adenosine]
Ki [1]: 1.18 µM
Ki [2]: 0.243 µM

OC[C@H]1O[C@@H](n2cnc3c(NC4CCCC4)ncnc32)[C@H](O)[C@@H]1O
Ki [1]: 0.51 µM

CCNC(=O)C1OC(n2cnc3c(NC4CCCCC4)ncnc32)C(O)C1O (stereo not drawn) [N6-CyclohexylNECA]
Ki [1]: 0.17 µM
Ki [2]: 0.00043 µM

Nc1ncnc2c1ncn2[C@@H]1O[C@H](Cl)[C@@H](O)[C@H]1O [5'-Chloro Adenosine]
Ki [1]: 0.14 µM
Ki [2]: 0.02 µM

CSC[C@H]1O[C@@H](n2cnc3c(NC4CCCC4)nc(F)nc32)[C@H](O)[C@@H]1O [2-Fluoro-5'-Methylthio Adenosine]
Ki [1]: 0.95 µM
Ki [2]: 0.084 µM

O[C@@H]1[C@H](O)[C@@H](Cl)O[C@H]1n1cnc2c(NC3CCCC3)ncnc21 [N6-Cyclopentyl-5'chloro Adenosine]
Ki [1]: 1.36 µM
Ki [2]: 0.00063 µM

Nc1nc(F)nc2c1ncn2[C@@H]1O[C@H](CO)[C@@H](O)[C@H]1O [2-FluoroAdo]
Ki [1]: 0.028 µM
Ki [2]: 0.0059 µM
